For the test, the system named is Plasmopara viticola. Kind of test: Activity against peronospora of grapevines caused by Plasmopara viticola (protective spray of potted vines, cultivar Riesling). It is filed as in vivo. The note with it: individual active compound, untreated control 84% infection. On the procedure:
The active compounds, separately or jointly, were prepared as a stock solution comprising 0.25% by weight of active compound in acetone or DMSO. 1% by weight of the emulsifier Uniperol® EL (wetting agent having emulsifying and dispersant action based on ethoxylated alkylphenols) was added to this solution, and the mixture was diluted with water to the desired concentration.
Use Example—Activity Against peronospora of Gravevines Caused by Plasmopara viticola
Leaves of potted vines of the cultivar “Riesling” were sprayed to runoff point with an aqueous suspension having the concentration of active compound stated below. The next day, the undersides of the leaves were inoculated with an aqueous zoospore suspension of Plasmopara viticola. The grapevines were then initially placed in a water-vapor-saturated chamber at 24° C. for 48 hours and then in a greenhouse at 20-30° C. for 5 days. After this period of time, the plants were again placed in a humid chamber for 16 hours to promote sporangiophore eruption. The extent of the development of the disease on the undersides of the leaves was then determined visually.
The visually determined percentages of infected leaf areas were converted into efficacies in % of the untreated control:
The efficacy (E) is calculated as follows using Abbot's formula: E=(1−α/β)·100 • α corresponds to the fungicidal infection of the treated plants in % and • β corresponds to the fungicidal infection of the untreated (control) plants in %
An efficacy of 0 means that the infection level of the treated plants corresponds to that of the untreated control plants; an efficacy of 100 means that the treated plants were not infected.
The expected efficacies of combinations of active compounds were determined using Colby's formula (Colby, S. R. “Calculating synergistic and antagonistic responses of herbicide combinations”, Weeds, 15, pp. 20-22, 1967) and compared with the observed efficacies.
Colby's Formula: E=x+y−x·y/100 • E expected efficacy, expressed in % of the untreated control, when using the mixture of the active compounds A and B at the concentrations a and b • x efficacy, expressed in % of the untreated control, when using the active compound A at the concentration a • y efficacy, expressed in % of the untreated control, when using the active compound B at the concentration b

[1] abbreviates: 4 ppm in the spray liquor, vines Riesling.

The structures appear in SMILES notation.

For `CC1CCN(c2c(-c3c(F)cccc3Cl)c(Cl)nc3ncnn23)CC1` [A], the “Efficacy in % of the untreated control” value under setting [1] stood at 16%.
On the same count and under the same terms, the value for `C[C@H](Nc1c(-c2c(F)cc(F)cc2F)c(Cl)nc2ncnn12)C(F)(F)F` [B] was 52%; that for `CC1CCN(c2c(-c3c(F)cc(F)cc3F)c(Cl)nc3ncnn23)CC1` [I, 5-chloro-7-(4-methylpiperidin-1-yl)-6-(2,4,6-trifluorophenyl)-[1,2,4]triazolo[1,5-a]pyrimidine] was 52%.
Turning to `Fc1ccc(Oc2ccnc3cc(Cl)cc(Cl)c23)cc1` [II (quinoxyfen), 5,7-dichloro-4-(4-fluorophenoxy)quinoline], the “Efficacy in % of the untreated control” value (1 ppm in the spray liquor (cell prints 161 = 16 and 1)) stood at 0%; the “Efficacy in % of the untreated control” value (16 ppm in the spray liquor (cell prints 161 = 16 and 1)) amounted to 16%.

Values taken from patent US20060293346A1, “Fungicidal mixtures” (priority 2003, published 2006).
